Structures can show the parent of a compound that is named as a salt.

In one assay the target is human V2 receptor (Homo sapiens, UniProt P30518). The assay can be described thus: V2 binding assay (3H-AVP displacement, HEK-293 membranes). Further details: expressed in transfected cells; host or cells: HEK-293 (membranes). The settings on record: for inhibition at 1 µM: read-out: V2@1.0, % Inh. Put shortly: (§1)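 Membranes competed against 3H-AVP (40-87 Ci/mmol, 10,000 cpm/well) in 50 mM Tris, 5 mM MgCl2, 0.1% BSA, pH 7.5, with protease inhibitors. Incubated 1 hour at room temperature, then filtered on PEI-presoaked GF/C and scintillation counted. Non-specific binding defined with 1.25 μM AVP.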

The target of assay [1] is T1, human V1b receptor (Homo sapiens, UniProt P47901).
T1 sequence (P47901 1-424): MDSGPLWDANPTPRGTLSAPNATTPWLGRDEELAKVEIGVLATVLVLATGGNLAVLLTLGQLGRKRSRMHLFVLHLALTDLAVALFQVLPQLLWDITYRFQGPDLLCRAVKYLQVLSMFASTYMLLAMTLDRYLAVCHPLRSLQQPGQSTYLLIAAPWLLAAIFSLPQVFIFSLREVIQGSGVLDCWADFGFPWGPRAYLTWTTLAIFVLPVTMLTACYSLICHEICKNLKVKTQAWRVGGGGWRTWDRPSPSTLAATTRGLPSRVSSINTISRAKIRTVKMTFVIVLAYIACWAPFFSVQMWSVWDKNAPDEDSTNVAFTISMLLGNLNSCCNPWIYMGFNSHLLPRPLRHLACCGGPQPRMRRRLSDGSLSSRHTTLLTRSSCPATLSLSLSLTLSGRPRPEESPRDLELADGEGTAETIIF
In words: V1b functional assay, intracellular calcium mobilization in transfected HEK-293 cells (FLIPR). In kind it is cell-based. Particulars: for IC50: challenge 0.5 nM AVP, read-out: Cell-Based Functional activity V1b IC50. Details: expressed in transfected cells; host or cells: HEK-293. The procedure: V1a, V1b or V2 Functional Assay
HEK-293 cells were grown in DMEM media supplemented with 10% FBS and glutamine (Gibco BRL, Grand Island, N.Y.). Once transfected the cells were passed biweekly by trypsinization and seeded into 96 well plates at 33,000 cells per well. HEK-293 were transfected with human V1a, V1b or V2 DNA using DMRIE-C reagent from Life Technologies, Inc., Grand Island, N.Y. Cells were tested for their responsiveness to vasopressin 48 hours after transfection. Stable lines were generated by selecting cells grown in culture media containing geneticin (500 μg/ml, Life Technologies).
Intracellular calcium mobilization was measured in HEK-293 cells transfected to express either human V1a, oxytocin or V1b receptors. Cells were plated into black 96-well Packard Clear-View plates 4 to 7 days prior to use. The cells were loaded with fluo-3 AM (Molecular Probes, Inc., Eugene, Oreg.) in buffer (25 mM Hepes, 125 mM NaCl, 1 gm/l glucose, 0.1% BSA, 5 mM KCl, 0.5 mM CaCl2, 0.5 mM MgCl2, pH 7.45) containing Pluronic (Molecular Probes) Cells were incubated with 5 μM fluo-3 AM for 1 hour shielded from light at room temperature. Intracellular fluorescence was measured using FLIPR (fluorometric imaging plate reader; Molecular Devices, Inc., Sunnyvale, Calif.). The FLIPR protocol called for images to be collected at one second intervals with 50 μl of the test compound added after the initial 10 images. An additional 70 images were then taken to detect any compound agonistic activity. FLIPR then added 50 μl of agonist peptide and collected a final 40 images for quantitating compound antagonistic activity. V1a- and V1b-expressing HEK cells were challenged with 1 nM and 0.5 nM AVP, respectively. Oxytocin-expressing HEK cells were challenged with 0.5 nM oxytocin (Peninsula Labs).
The data from the cAMP accumulation and the calcium mobilization assays are expressed as IC50 values as determined from dose response curves.

The target in assay [2] is T1, human V1b receptor. The assay can be described thus: V1b binding assay (3H-AVP displacement, HEK-293 membranes). Particulars: for inhibition at 10 µM: read-out: V1b % Inh @10. Details: expressed in transfected cells; host or cells: HEK-293 (membranes). The method, boiled down:
as §1

The term IC50 denotes the midpoint of a concentration-inhibition curve. For the molecule “1-[(N1-Piperidinocarbothioyl-(1-L-carboxymethyl-2-phenylamino)-4-yl]-3-(3-aminopropyl)-1,3-dihydrobenzimidazol-2-one Hydrochloride [Compound 57]”, the “V2@1.0, % Inh” value on human V2 receptor (1.0 μM compound) amounted to 0%. In addition, the IC50 on human V1b receptor [1] was 16.8 µM. Moreover, at human V1b receptor [2] (10 μM compound), the “V1b % Inh @10” value is recorded as 25%@10.

With `CCN(CC)CCn1c(=O)n(C2CCN(C(=S)NC(c3ccccc3)c3ccccc3)CC2)c2ccccc21` [Compound 35, 1-(N1-Piperidinocarbothioyldiphenylmethylamino-4-yl)-3-(2-diethyaminoethyl)-1,3-dihydrobenzimidazol-2-one], the inhibition at 1 µM on human V2 receptor (1.0 μM compound) came out at 44%; on human V1b receptor [2] (1.0 μM compound, read-out: V1b@1.0, % Inh), 47%. The concentration for half-maximal inhibition (IC50) at human V1b receptor [1] came out at 9.99 µM.

Consider `CCN(CC)CCn1c(=O)n(C2CCN(C(=S)NC(Cc3ccccc3)C(=O)OC)CC2)c2ccccc21` [Compound 42, 1-(N1-Piperidinocarbothioyl-(2-phenyl-1-L-carboxymethyl)amino-4-yl)-3-(2-diethyaminoethyl)-1,3-dihydrobenzimidazol-2-one], for which the inhibition at 1 µM at human V2 receptor (1.0 μM compound) was found to be 0%. Besides, the inhibition at 30 µM on human V1b receptor [1] (HEK293, 30 μM compound, read-out: Cell-Based Functional activity V1b % Inh. @ 30) worked out at 0%. Also, on human V1b receptor [2] (10 μM compound), the inhibition at 10 µM was determined as 37%.

For `NCCCn1c(=O)n(C2CCN(C(=S)NC(c3ccccc3)c3ccccc3)CC2)c2ccccc21` [Compound 55, 1-[(N1-Piperidinocarbothioyldiphenylmethylamino)-4-yl]-3-(3-aminopropyl)-1,3-dihydrobenzimidazol-2-one Monohydrochloride], the values for the IC50 at human V2 receptor, on human V1b receptor [1] and at human V1b receptor [2] were 1.25 µM, 0.318 µM and 5.1 µM, respectively.

With `N=C(N)NCCCn1c(=O)n(C2CCN(C(=S)NC(c3ccccc3)c3ccccc3)CC2)c2ccccc21` [Compound 59, 1-[(N1-Piperidinocarbothioyldiphenylmethylamino)-4-yl]-3-(3-guanidinopropyl)-1,3-dihydrobenzimidazol-2-one], the inhibition at 1 µM on human V2 receptor (1.0 μM compound) amounted to 18%. The IC50 amounted to 6.61 µM on human V1b receptor [1] and 4.1 µM on human V1b receptor [2]. Further, the inhibition at 10 µM at human V1b receptor [2] (10 μM compound) worked out at 62%.

The values are drawn from patent publication US6653478B2, “Substituted benzimidazol-2-ones as vasopressin receptor antagonists and neuropeptide Y modulators” (Ortho-McNeil Pharmaceutical, Inc., priority 2000, dated 2003).
